Test results taken from ChEMBL document CHEMBL5154881, “Discovery of First-in-Class TAK1-MKK3 Protein-Protein Interaction (PPI) Inhibitor (R)-STU104 for the Treatment of Ulcerative Colitis through Modulating TNF-α Production” (J Med Chem, 2022).

Experiments:
[1] = Inhibition of MKK3-p38-elF4E signaling pathway in mouse RAW264.7 cells assessed as inhibition of LPS-induced MKK3 phosphorylation; format: cell-based
[2] = test system: Mus musculus; assay: Antiinflammatory activity against IL-10-/- C57BL/6 mouse model of acute ulcerative colitis assessed as decrease in serum IL-1beta levels administered intragastrically via gavage measured after 8 weeks by ELISA; format: functional, organism-based; details: dose 3-10 mg/kg, route ig, DDE = dose-dependent effect
[3] = Toxicity in C57 mouse assessed as maximum tolerated dose administered orally daily for 14 days; details: in vivo, route po, time 14 day
[4] = MRT (0 to infinity) in 12 hr starved C57 mouse at 30 mg/kg, po measured for 0.083 to 24 hrs post-dose by LC-MS-MS analysis; format: ADME, organism-based; details: in vivo, time 0.083-24 hrs
[5] = test system: Mus musculus; assay: Antiinflammatory activity against DSS-induced C57BL/6 mouse model of acute ulcerative colitis assessed as inhibition of TNF-alpha mRNA expression in colon tissue administered intragastrically via gavage measured after 7 days by RT-qPCR analysis; format: functional, organism-based; details: route ig, time 7.0 day, DDE = dose-dependent effect
[6] = test system: Mus musculus; assay: Inhibition of MKK3-p38 MAPK-elF4E signaling pathway in C57BL/6 mouse model of acute ulcerative colitis assessed as decrease in DSS-induced MK2 phosphorylation in colon tissue administered intragastrically via gavage measured after 7 days by Western blot analysis; details: dose 1-50 mg/kg, time 7.0 day, DDE = dose-dependent effect
[7] = test system: Mus musculus; assay: Antiinflammatory activity against IL-10-/- C57BL/6 mouse model of ulcerative colitis assessed as inhibition ratio of IL-23 mRNA expression in colon tissue at 1 mg/kg, IG via gavage and measured after 8 weeks by RT-qPCR analysis relative to control; format: functional; design: scale not given: the % may be the effect or the level left
[8] = test system: Mus musculus; assay: Anti-ulcerative colitis activity in IL-10-/- C57BL/6 mouse model of ulcerative colitis assessed as histopathological score recovery ratio at 1 mg/kg, IG via gavage for 8 weeks relative to control; format: functional
[9] = test system: Mus musculus; assay: Antiinflammatory activity against IL-10-/- C57BL/6 mouse model of ulcerative colitis assessed as inhibition ratio of IL-1beta mRNA expression in colon tissue at 10 mg/kg, IG via gavage and measured after 8 weeks by RT-qPCR analysis relative to control; format: functional; design: scale not given: the % may be the effect or the level left
[10] = test system: Mus musculus; assay: Antiinflammatory activity against IL-10-/- C57BL/6 mouse model of ulcerative colitis assessed as inhibition ratio of TNF-alpha mRNA expression in colon tissue at 1 mg/kg, IG via gavage and measured after 8 weeks by RT-qPCR analysis relative to control; format: functional; design: scale not given: the % may be the effect or the level left
[11] = test system: Mus musculus; assay: Antiinflammatory activity against IL-10-/- C57BL/6 mouse model of ulcerative colitis assessed as inhibition ratio of IL-23 protein expression at 10 mg/kg, IG via gavage and measured after 8 weeks by ELISA relative to control; format: functional; design: scale not given: the % may be the effect or the level left
[12] = test system: Mus musculus; assay: Antiinflammatory activity against DSS-induced C57BL/6 mouse model of acute ulcerative colitis assessed as inhibition ratio of IL-1beta mRNA expression in colon tissue at 10 mg/kg, IG via gavage measured after 7 days by RT-qPCR analysis relative to control; format: functional; design: scale not given: the % may be the effect or the level left; details: time 7 day
[13] = target: Voltage-gated inwardly rectifying potassium channel KCNH2 (Homo sapiens, UniProt Q12809); assay: Inhibition of hERG; format: toxicity
Chain of Voltage-gated inwardly rectifying potassium channel KCNH2 (Q12809 whole entry): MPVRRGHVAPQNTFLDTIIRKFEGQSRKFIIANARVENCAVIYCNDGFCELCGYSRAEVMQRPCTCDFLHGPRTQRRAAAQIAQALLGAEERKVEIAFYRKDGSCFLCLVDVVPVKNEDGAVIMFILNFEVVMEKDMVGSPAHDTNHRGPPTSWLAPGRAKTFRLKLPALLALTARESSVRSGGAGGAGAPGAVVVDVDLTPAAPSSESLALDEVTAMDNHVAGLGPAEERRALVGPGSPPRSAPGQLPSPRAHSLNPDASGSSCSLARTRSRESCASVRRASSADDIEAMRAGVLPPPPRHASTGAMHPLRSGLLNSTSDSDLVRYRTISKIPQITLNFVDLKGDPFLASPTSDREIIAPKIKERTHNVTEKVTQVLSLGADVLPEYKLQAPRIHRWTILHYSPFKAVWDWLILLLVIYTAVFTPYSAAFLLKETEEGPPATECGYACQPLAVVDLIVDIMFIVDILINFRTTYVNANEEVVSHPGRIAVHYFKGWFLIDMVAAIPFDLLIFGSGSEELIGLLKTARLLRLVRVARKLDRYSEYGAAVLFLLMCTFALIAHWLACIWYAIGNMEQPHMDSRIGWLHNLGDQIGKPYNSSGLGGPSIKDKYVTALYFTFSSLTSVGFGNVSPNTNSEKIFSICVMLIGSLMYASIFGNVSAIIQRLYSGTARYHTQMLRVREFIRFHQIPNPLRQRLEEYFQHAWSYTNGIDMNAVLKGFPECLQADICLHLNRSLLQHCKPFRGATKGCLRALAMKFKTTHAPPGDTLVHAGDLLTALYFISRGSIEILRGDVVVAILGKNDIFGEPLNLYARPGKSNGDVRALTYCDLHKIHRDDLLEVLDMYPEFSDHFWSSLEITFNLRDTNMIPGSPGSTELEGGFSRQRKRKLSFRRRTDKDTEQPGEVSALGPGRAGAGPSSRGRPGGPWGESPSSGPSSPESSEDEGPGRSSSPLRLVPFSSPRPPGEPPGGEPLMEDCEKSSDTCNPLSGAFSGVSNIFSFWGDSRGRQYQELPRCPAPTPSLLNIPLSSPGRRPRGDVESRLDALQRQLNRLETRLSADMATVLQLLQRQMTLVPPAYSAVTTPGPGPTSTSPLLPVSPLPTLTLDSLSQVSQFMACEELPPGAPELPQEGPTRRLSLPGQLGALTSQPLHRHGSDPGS

[14] = test system: Mus musculus; assay: Antiinflammatory activity against DSS-induced C57BL/6 mouse model of acute ulcerative colitis assessed as inhibition ratio of IL-6 mRNA expression in colon tissue at 3 mg/kg, IG via gavage measured after 7 days by RT-qPCR analysis relative to control; format: functional; design: scale not given: the % may be the effect or the level left; details: time 7 day
[15] = test system: Mus musculus; assay: Antiinflammatory activity against DSS-induced C57BL/6 mouse model of acute ulcerative colitis assessed as inhibition ratio of IL-6 protein expression at 3 mg/kg, IG via gavage measured after 7 days by ELISA relative to control; format: functional; design: scale not given: the % may be the effect or the level left; details: time 7 day
[16] = test system: Mus musculus; assay: Anti-ulcerative colitis activity against DSS-induced ulcerative colitis C57BL/6 mouse model assessed as reduction in DAI recovery score ratio at 1 mg/kg, IG via gavage administered for 7 days and measured everyday relative to control; format: functional; design: scale not given: the % may be the effect or the level left; details: time 7 day
[17] = Toxicity in C57 mouse assessed as heart damage at 50 to 500 mg/kg, po administered daily for 14 days; format: organism-based; details: in vivo, 336 h, dose 50-500 mg/kg, time 14 day
[18] = test system: Mus musculus; assay: Anti-ulcerative colitis activity against DSS-induced ulcerative colitis C57BL/6 mouse model assessed as reduction in DAI recovery score ratio at 10 mg/kg, IG via gavage administered for 7 days and measured everyday relative to control; format: functional; design: scale not given: the % may be the effect or the level left; details: time 7 day
[19] = test system: Mus musculus; assay: Antiinflammatory activity against DSS-induced C57BL/6 mouse model of acute ulcerative colitis assessed as inhibition ratio of IL-6 protein expression at 1 mg/kg, IG via gavage measured after 7 days by ELISA relative to control; format: functional; design: scale not given: the % may be the effect or the level left; details: time 7 day
[20] = Apparent clearance during terminal phase in 12 hr starved C57 mouse at 30 mg/kg, po measured for 0.083 to 24 hrs post-dose by LC-MS-MS analysis; format: ADME, organism-based; details: in vivo, time 0.083-24 hrs
[21] = test system: Mus musculus; assay: Anti-ulcerative colitis activity against DSS-induced ulcerative colitis C57BL/6 mouse model assessed as reduction in DAI recovery score ratio at 50 mg/kg, IG via gavage administered for 7 days and measured everyday relative to control; format: functional; design: scale not given: the % may be the effect or the level left; details: time 7 day
[22] = test system: Mus musculus; assay: Antiinflammatory activity against DSS-induced C57BL/6 mouse model of acute ulcerative colitis assessed as inhibition ratio of IL-23 protein expression at 10 mg/kg, IG via gavage measured after 7 days by ELISA relative to control; format: functional; design: scale not given: the % may be the effect or the level left; details: time 7 day
[23] = test system: Mus musculus; assay: Antiinflammatory activity against DSS-induced C57BL/6 mouse model of acute ulcerative colitis assessed as reduction in serum TNF-alpha levels administered intragastrically via gavage measured after 7 days by ELISA; format: functional, organism-based; details: dose 1-10 mg/kg, route ig, time 7.0 day, DDE = dose-dependent effect
[24] = test system: Mus musculus; assay: Inhibition of MKK3-p38 MAPK-elF4E signaling pathway in C57BL/6 mouse model of acute ulcerative colitis assessed as decrease in DSS-induced p38 MAPK phosphorylation in colon tissue administered intragastrically via gavage measured after 7 days by Western blot analysis; details: dose 1-50 mg/kg, time 7.0 day, DDE = dose-dependent effect
[25] = test system: Mus musculus; assay: Anti-ulcerative colitis activity in IL-10-/- C57BL/6 mouse model of ulcerative colitis assessed as colon length recovery ratio at 10 mg/kg, IG via gavage for 8 weeks relative to control; format: functional
[26] = test system: Mus musculus; assay: Anti-ulcerative colitis activity against DSS-induced ulcerative colitis C57BL/6 mouse model assessed as reduction in DAI recovery score ratio at 3 mg/kg, IG via gavage administered for 7 days and measured everyday relative to control; format: functional; design: scale not given: the % may be the effect or the level left; details: time 7 day
[27] = test system: Mus musculus; assay: Antiinflammatory activity against DSS-induced C57BL/6 mouse model of acute ulcerative colitis assessed as inhibition ratio of IL-23 mRNA expression in colon tissue at 3 mg/kg, IG via gavage measured after 7 days by RT-qPCR analysis relative to control; format: functional; design: scale not given: the % may be the effect or the level left; details: time 7 day
[28] = test system: Mus musculus; assay: Antiinflammatory activity against DSS-induced C57BL/6 mouse model of acute ulcerative colitis assessed as inhibition ratio of IL-1beta mRNA expression in colon tissue at 3 mg/kg, IG via gavage measured after 7 days by RT-qPCR analysis relative to control; format: functional; design: scale not given: the % may be the effect or the level left; details: time 7 day
[29] = test system: Mus musculus; assay: Antiinflammatory activity against DSS-induced C57BL/6 mouse model of acute ulcerative colitis assessed as inhibition ratio of TNF-alpha protein expression at 10 mg/kg, IG via gavage measured after 7 days by ELISA relative to control; format: functional; design: scale not given: the % may be the effect or the level left; details: time 7 day

## COc1ccc([C@H]2CC(=O)c3cc(OC)cc(OC)c32)cc1
[1]
  IC50: 4 µM
[2]
  Activity: Dde
[3]
  MTD at 336 h: 500 mg/kg
[4]
  MRT inf: 12.5 h
[5]
  Activity: Dde
[6]
  inhibition: Dde
[7]
  Activity: 31%
[8]
  Activity: 33%
[9]
  Activity: 43.8%
[10]
  Activity: 24.7%
[11]
  Activity: 64.4%
[12]
  Activity: 95.6%
[13]
  IC50: > 30 µM
[14]
  Activity: 68%
[15]
  Activity: 53.5%
[16]
  Activity: 20%
[17]
  Activity: Non-Toxic
[18]
  Activity: 45%
[19]
  Activity: 40.4%
[20]
  CLz/F: 4.83 mL/min/kg
[21]
  Activity: 22.7%
[22]
  Activity: 52.3%
[23]
  Activity: Dde
[24]
  inhibition: Dde
[25]
  Activity: 41.2%
[26]
  Activity: 40%
[27]
  Activity: 89.9%
[28]
  Activity: 87.2%
[29]
  Activity: 58.1%
